In publication PMC5411959, “Potential Antiosteoporotic Natural Product Lead Compounds That Inhibit 17β-Hydroxysteroid Dehydrogenase Type 2” (Journal of Natural Products, 2017):
Where “and” joins values, the source holds several entries; their conditions need not be identical. Equal values may be shown once. Read-outs that look alike come from different tables or passages of the source.

Experiments:
human 17β-HSD2 = biological target: T1, human 17β-HSD2 (Homo sapiens, UniProt P37059); assay: 17β-HSD2 activity assay using lysates of HEK-293 cells expressing the recombinant human enzyme; assay type: biochemical; conditions: for remaining activity at 20 µM: read-out: 17β-HSD2 remaining activity at 20 μM (% of control); for 17β-HSD2 inhibition (in words): tested at 20 μM; for IC50: HEK-293 lysates, 200 nM estradiol, 500 μM NAD+, 10 min 37 °C;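 as to all read-outs here: conversion of tritium-labelled estradiol (200 nM, with 500 µM NAD+, 10 min) quantified after TLC separation by scintillation counting, at least three independent measurements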
T1 construct: expressed in transfected cells; host or cells: HEK-293 (ATCC), used as cell lysate
T1 sequence (P37059 1-387): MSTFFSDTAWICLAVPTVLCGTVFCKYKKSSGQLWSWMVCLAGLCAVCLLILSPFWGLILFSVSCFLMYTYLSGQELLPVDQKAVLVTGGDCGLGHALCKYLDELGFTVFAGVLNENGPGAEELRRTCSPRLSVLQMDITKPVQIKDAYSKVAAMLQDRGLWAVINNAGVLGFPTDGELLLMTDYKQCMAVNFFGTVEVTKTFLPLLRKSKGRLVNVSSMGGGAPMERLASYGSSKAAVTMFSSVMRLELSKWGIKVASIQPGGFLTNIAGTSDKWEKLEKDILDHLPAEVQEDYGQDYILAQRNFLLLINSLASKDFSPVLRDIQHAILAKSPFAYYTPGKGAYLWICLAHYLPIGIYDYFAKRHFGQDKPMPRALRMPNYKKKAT

human 17β-HSD1 = biological target: T2, human 17β-HSD1 (Homo sapiens, UniProt P14061); assay: 17β-HSD1 activity assay using lysates of HEK-293 cells expressing the recombinant human enzyme; assay type: biochemical; conditions: for IC50: HEK-293 lysates, 200 nM estrone, 500 μM NADPH; for 17β-HSD1 inhibition (in words; n.i. = no inhibition): screened at 20 μM
T2 construct: expressed in transfected cells; host or cells: HEK-293 (ATCC), used as cell lysate
T2 sequence (P14061 1-328): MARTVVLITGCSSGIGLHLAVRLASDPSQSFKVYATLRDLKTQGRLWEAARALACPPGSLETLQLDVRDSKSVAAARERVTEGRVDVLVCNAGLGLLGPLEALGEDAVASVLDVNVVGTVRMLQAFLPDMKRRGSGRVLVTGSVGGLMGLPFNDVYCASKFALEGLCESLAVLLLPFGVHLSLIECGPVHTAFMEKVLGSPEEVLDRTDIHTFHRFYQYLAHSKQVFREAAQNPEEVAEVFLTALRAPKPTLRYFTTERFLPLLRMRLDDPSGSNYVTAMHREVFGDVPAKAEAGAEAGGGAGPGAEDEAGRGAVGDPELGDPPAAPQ

17β-HSD2 = system: 17β-HSD2; parameters: method as in PMID 18533708; conditions: cited from earlier work; for activity: 40 μM, read-out: inhibition of 17β-HSD2: % residual activity at 40 μM; for activity / IC50: mean ± SD; for classification (17β-HSD2 inhibition): flavonoid SAR model, Table 4; for IC50: read-out: inhibition of 17β-HSD2: IC50 (μM)
[1] = 20 μM compound, % of vehicle control

## CCN(CC)CCCC(C)Nc1ccnc2cc(Cl)ccc12 (racemic) [S17, (±)-chloroquine, reference compound]
Human 17β-HSD2; [1]
  17β-HSD2 remaining activity at 20 μM (% of control): 111 ± 13%

## CCOC(=O)c1cc(O)c(O)c(O)c1 [S1, ethyl gallate]
Human 17β-HSD2; [1]
  remaining activity at 20 µM: 60 ± 6%

## COc1cc(CCC(C)=O)ccc1O [S2, vanillyl acetone]
Human 17β-HSD2; [1]
  17β-HSD2 remaining activity at 20 μM (% of control): 106 ± 9%

## CCCCOC(=O)c1cc(O)c(O)c(O)c1 [S3, butyl gallate]
Human 17β-HSD2; [1]
  remaining activity at 20 µM: 56 ± 5%

## C=CCc1ccc(O)c(OC)c1 [S4, eugenol]
Human 17β-HSD2
  remaining activity at 20 µM: 94 ± 11%

## COc1cc(/C=C/C(=O)O)ccc1O [S5, ferulic acid]
Human 17β-HSD2; [1]
  17β-HSD2 remaining activity at 20 μM (% of control): 79 ± 10%

## COc1cc(CNC(=O)CCCC/C=C/C(C)C)ccc1O [S6, capsaicin]
Human 17β-HSD2
  remaining activity at 20 µM: 53 ± 6%

## NC(=O)c1cccnc1 [S7, nicotinamide]
Human 17β-HSD2; [1]
  remaining activity at 20 µM: 106 ± 12%

## O=C(/C=C/c1ccc(O)c(O)c1)O[C@@H]1C[C@](O)(C(=O)O)C[C@@H](O)[C@H]1O [S8, chlorogenic acid]
Human 17β-HSD2; [1]
  remaining activity at 20 µM: 97 ± 10%

## O=C(O)/C=C/c1ccc(O)c(O)c1 [S9, caffeic acid]
Human 17β-HSD2; [1]
  remaining activity at 20 µM: 58 ± 13%

## COc1cc(C)cc2oc3ccc(O)c(C(=O)O)c3c(=O)c12 [S10, 2-hydroxy-8-methoxy-6-methyl-9-oxo-9H-xanthene-1-carboxylic acid]
Human 17β-HSD2; [1]
  17β-HSD2 remaining activity at 20 μM (% of control): 64 ± 5%

## NC(=O)Cc1ccc(O)c(Cl)c1 [S11, 2-(3-chloro-4-hydroxyphenyl)acetamide]
Human 17β-HSD2; [1]
  remaining activity at 20 µM: 80 ± 10%
Human 17β-HSD2
  17β-HSD2 inhibition (in words): did not inhibit

## O=C(O)Cc1ccc(O)c(Cl)c1 [S12, 2-(3-chloro-4-hydroxyphenyl)acetic acid]
Human 17β-HSD2
  remaining activity at 20 µM: 88 ± 7%

## COc1cc(/C=C2\N=C(N)NC2=O)ccc1O [S14, polyandrocarpamine A]
Human 17β-HSD2; [1]
  remaining activity at 20 µM: 101 ± 7%

## O=C(O)Cc1ccc(O)cc1 [S15, 2-(4-hydroxyphenyl)acetic acid]
Human 17β-HSD2; [1]
  remaining activity at 20 µM: 108 ± 5%
Human 17β-HSD2
  17β-HSD2 inhibition (in words): did not inhibit

## NC(=O)Cc1ccc(O)cc1 [S16, 2-(4-hydroxyphenyl)acetamide]
Human 17β-HSD2; [1]
  remaining activity at 20 µM: 110 ± 10%
Human 17β-HSD2
  17β-HSD2 inhibition (in words): did not inhibit

## COC(=O)c1cc2c(c(O)c1OC)[C@H](C)C[C@@H](O)[C@H]2[C@@H](C)CCC=C(C)C [S18, methyl (5R,7R,8S)-4,7-dihydroxy-3-methoxy-5-methyl-8-((S)-6-methylhept-5-en-2-yl)-5,6,7,8-tetrahydronaphthalene-2-carboxylate]
Human 17β-HSD2; [1]
  17β-HSD2 remaining activity at 20 μM (% of control): 59 ± 7%

## CC(Cc1ccc(O)c(O)c1)C(C)Cc1ccc(O)c(O)c1 (stereo not drawn) [compound 1, nordihydroguaiaretic acid]
Human 17β-HSD2
  IC50: 0.38 ± 0.04 µM
Human 17β-HSD1
  times more active toward 17β-HSD2 than 17β-HSD1: 15 times
  IC50: 5.5 ± 1.3 µM
Human 17β-HSD1; 17β-HSD1 versus 17β-HSD2
  selectivity factor: 15
Human 17β-HSD1; 17β-HSD2 over 17β-HSD1
  selectivity over 17β-HSD1: ≥ 8 fold

## CC1(C)CC[C@]2(C(=O)O)CC[C@]3(C)C(=CC[C@@H]4[C@@]5(C)CC[C@H](O)C(C)(C)[C@@H]5CC[C@]43C)[C@@H]2C1 [compound 2, oleanolic acid]
Human 17β-HSD2
  remaining activity at 20 µM: 49 ± 6%

## COc1cc(-c2cc(=O)c3c(O)c(OC)c(O)cc3o2)ccc1O [compound 5, jaceosidin]
Human 17β-HSD2
  IC50: 9.3 µM and 9.27 µM
Human 17β-HSD2; flavonoid SAR model, Table 4
  classification (17β-HSD2 inhibition): active

## O=C(/C=C/c1ccc(O)cc1)c1ccc(O)cc1O [compound 6, isoliquiritigenin]
Human 17β-HSD2
  IC50: 0.36 ± 0.08 µM

## COc1cc([C@H]2OC[C@H]3[C@@H]2CO[C@@H]3c2ccc(O)c(OC)c2)ccc1O [compound 7, pinoresinol]
Human 17β-HSD2
  remaining activity at 20 µM: 42 ± 5%

## O=c1c2c(O)cc(O)cc2oc2oc3cc(O)ccc3c12 [compound 8, lupinalbin A]
Human 17β-HSD1
  IC50: 0.049 ± 0.019 µM

## O=C(/C=C/c1ccc(O)c(O)c1)c1ccc(O)cc1O [compound 10, butein]
Human 17β-HSD2
  IC50: 7.3 ± 2.7 µM
Human 17β-HSD2; compared with compound 6
  fold less active than 6 (17β-HSD2 IC50): 20 fold

## O=C(/C=C/c1ccc(O)c(O)c1)O[C@H](Cc1ccc(O)c(O)c1)C(=O)O [compound 11, rosmarinic acid]
Human 17β-HSD2
  IC50: 3.72 ± 0.17 µM
Human 17β-HSD1
  17β-HSD1 inhibition (in words; n.i. = no inhibition): n.i. ^a

## CCOC(=O)c1ccc(O)c(OC)c1 [compound 12, ethyl vanillate]
Human 17β-HSD2
  IC50: 1.28 ± 0.26 µM
Human 17β-HSD1
  17β-HSD1 inhibition (in words; n.i. = no inhibition): n.i.

## O=C(Cc1ccc(O)c(Cl)c1)NCCc1ccccc1 [compound 13, 2-(3-chloro-4-hydroxyphenyl)-N-phenethylacetamide]
Human 17β-HSD2
  IC50: 1.57 ± 0.16 µM
Human 17β-HSD1
  17β-HSD1 inhibition (in words; n.i. = no inhibition): n.i.

## COCCNC(=O)Cc1ccc(O)c(Cl)c1 [compound 14, 2-(3-chloro-4-hydroxyphenyl)-N-(2-methoxyethyl)acetamide]
Human 17β-HSD2; [1]
  remaining activity at 20 µM: 37 ± 3%
Human 17β-HSD2
  17β-HSD2 inhibition (in words): moderately active

## CCCCNC(=O)Cc1ccc(O)c(Cl)c1 [compound 15, N-butyl-2-(3-chloro-4-hydroxyphenyl)acetamide]
Human 17β-HSD2; [1]
  remaining activity at 20 µM: 33 ± 6%
Human 17β-HSD2
  17β-HSD2 inhibition (in words): moderately active

## O=C1CC(c2ccccc2)Oc2ccccc21 (stereo not drawn) [compound 19, flavanone]
17β-HSD2
  activity: 70.7 ± 2.6%
  classification (17β-HSD2 inhibition): inactive^24

## O=C1CC(c2ccccc2O)Oc2ccccc21 (stereo not drawn) [compound 20, 2´-hydroxyflavanone]
17β-HSD2
  activity: 50.7 ± 0.5%
  classification (17β-HSD2 inhibition): inactive^24

## O=C1CC(c2ccc(O)cc2)Oc2ccccc21 (stereo not drawn) [compound 21, 4´-hydroxyflavanone]
17β-HSD2
  activity: 63.6 ± 3.5%
  classification (17β-HSD2 inhibition): inactive^24

## O=C1CC(c2ccccc2)Oc2ccc(O)cc21 (stereo not drawn) [compound 22, 6-hydroxyflavanone]
17β-HSD2
  activity: 42.5 ± 1.8%
  classification (17β-HSD2 inhibition): inactive^24

## O=C1C[C@@H](c2ccc(O)cc2)Oc2cc(O)cc(O)c21 [compound 23, naringenin]
17β-HSD2
  classification (17β-HSD2 inhibition): active^24
  IC50: 14.4 ± 4.5 µM

## COc1ccc([C@@H]2CC(=O)c3c(O)cc(O)cc3O2)cc1O [compound 24, hesperetin]
17β-HSD2
  activity: 36.4 ± 1.7%
  classification (17β-HSD2 inhibition): inactive^24

## O=c1cc(-c2ccccc2)oc2ccccc12 [compound 25, flavone]
17β-HSD2
  activity: 63.9 ± 0.6%
  classification (17β-HSD2 inhibition): inactive^24

## O=c1cc(-c2ccccc2)oc2cc(O)ccc12 [compound 26, 7-hydroxyflavone]
17β-HSD2
  activity: 23.1 ± 1.1%
  classification (17β-HSD2 inhibition): weak^24
  IC50: > 20 µM

## O=c1cc(-c2ccccc2)oc2cc(O)cc(O)c12 [compound 27, chrysin]
17β-HSD2
  activity: 32.8 ± 5.1%
  classification (17β-HSD2 inhibition): inactive^24

## O=c1c(-c2ccc(O)cc2)coc2cc(O)ccc12 [compound 28, daidzein]
17β-HSD2
  activity: 58.3 ± 6.1%
  classification (17β-HSD2 inhibition): inactive^24

## O=c1cc(-c2ccc(O)cc2)oc2cc(O)cc(O)c12 [compound 29, apigenin]
17β-HSD2
  activity: 25.2 ± 0.9%
  classification (17β-HSD2 inhibition): weak^24
  IC50: > 20 µM

## O=c1c(O)c(-c2ccc(O)cc2)oc2cc(O)cc(O)c12 [compound 30, kaempferol]
17β-HSD2
  classification (17β-HSD2 inhibition): active^24
  IC50: 0.36 ± 0.04 µM

## O=c1c(O)c(-c2ccc(O)c(O)c2)oc2cc(O)cc(O)c12 [compound 31, quercetin]
17β-HSD2
  classification (17β-HSD2 inhibition): active^24
  IC50: 1.54 ± 0.22 µM

## O=c1c(-c2ccc(O)cc2)coc2cc(O)cc(O)c12 [compound 32, genistein]
17β-HSD2
  classification (17β-HSD2 inhibition): active^24

## COc1ccc(-c2coc3cc(O)cc(O)c3c2=O)cc1 [compound 33, biochanin A]
17β-HSD2
  classification (17β-HSD2 inhibition): active^24
  IC50: 9.9 ± 1.87 µM

## pestalactam A [S13]
Human 17β-HSD2; [1]
  17β-HSD2 remaining activity at 20 μM (% of control): 85 ± 11%
